# Test results: patent publication US20030203966A1, “Nitromethylthiobenzene derivatives as aldose reductase inhihibitors” (priority 1996, published 2003)
# Where a name gives a salt, the structure may show the parent alone.
row,Compound,melting point
1,Cc1cc(NC(=O)CCCCCCC(=O)Nc2cc(C)c(S(=O)(=O)C[N+](=O)[O-])c(C)c2)cc(C)c1S(=O)(=O)C[N+](=O)[O-],235 to 238 °C
2,Cc1cc(NC(=O)CCCC(=O)Nc2cc(C)c(S(=O)(=O)C[N+](=O)[O-])c(C)c2)cc(C)c1S(=O)(=O)C[N+](=O)[O-],207 to 210 °C
3,Cc1cc(NS(=O)(=O)c2cccc(S(=O)(=O)Nc3cc(C)c(S(=O)(=O)C[N+](=O)[O-])c(C)c3)c2)cc(C)c1S(=O)(=O)C[N+](=O)[O-],191 to 192 °C
4,Cc1cc(NC(=O)C(=O)Nc2cc(C)c(S(=O)(=O)C[N+](=O)[O-])c(C)c2)cc(C)c1S(=O)(=O)C[N+](=O)[O-],246 to 248 °C
5,O=C(CCCC(=O)Nc1ccc(S(=O)(=O)C[N+](=O)[O-])cc1)Nc1ccc(S(=O)(=O)C[N+](=O)[O-])cc1,203 to 205 °C
6,Cc1cc(N(C(=O)CCC(N)=O)c2cc(C)c(S(=O)(=O)C[N+](=O)[O-])c(C)c2)cc(C)c1S(=O)(=O)C[N+](=O)[O-],226 to 228 °C
7,Cc1cc(NC(=O)CC(=O)Nc2cc(C)c(S(=O)(=O)C[N+](=O)[O-])c(C)c2)cc(C)c1S(=O)(=O)C[N+](=O)[O-],197 to 199 °C
8,Cc1cc(NC(=O)Nc2cc(C)c(S(=O)(=O)C[N+](=O)[O-])c(C)c2)cc(C)c1S(=O)(=O)C[N+](=O)[O-],224 to 226 °C
9,Cc1cc(NS(=O)(=O)Cc2cccc(CS(=O)(=O)Nc3cc(C)c(S(=O)(=O)C[N+](=O)[O-])c(C)c3)c2)cc(C)c1S(=O)(=O)C[N+](=O)[O-],124 to 130 °C
10,"Cc1cc(NS(=O)(=O)c2cc(F)c(Br)cc2F)cc(C)c1S(=O)(=O)C[N+](=O)[O-] (as salt: acetate) [Example 27, 4-Bromo-2,5-difluoro-N-[3,5-dimethyl-4-[(nitromethyl)-sulphonyl]phenyl]benzenesulphonamide]",167 to 169 °C
11,"Cc1cc(NS(C)(=O)=O)cc(C)c1S(=O)(=O)C[N+](=O)[O-] (as salt: acetate) [Example 40, N-[3,5-Dimethyl-4-[(nitromethyl)sulphonyl]phenyl]-methanesulphonamide]",138 to 140 °C
12,"Cc1cc(NS(=O)(=O)c2ccccc2)cc(C)c1SC[N+](=O)[O-] [Example 3, N-[3,5-Dimethyl-4-[(nitromethyl)thio]phenyl]benzenesulphonamide]",146 to 148 °C
13,"Cc1cc(NS(=O)(=O)c2ccccc2)cc(C)c1[S+]([O-])C[N+](=O)[O-] (stereo not shown) [Example 4, N-[3,5-Dimethyl-4-[(nitromethyl)sulphinyl]phenyl]-benzenesulphonamide]",> 50 °C (dec.)
14,"Cc1cc(NS(=O)(=O)c2ccc(F)cc2F)cc(C)c1S(=O)(=O)C[N+](=O)[O-] [Example 8, 2,4-Difluoro-N-[3,5-dimethyl-4-[(nitromethyl)sulphonyl]phenyl]benzenesulphonamide]",154 to 156 °C
15,"Cc1cc(NS(=O)(=O)c2cccc(C(F)(F)F)c2)cc(C)c1S(=O)(=O)C[N+](=O)[O-] [Example 9, N-[3,5-Dimethyl-4-[(nitromethyl)sulphonyl]phenyl]-3-(trifluoromethyl)benzenesulphonamide]",146 to 148 °C
16,"Cc1cc(NS(=O)(=O)CC(F)(F)F)cc(C)c1S(=O)(=O)C[N+](=O)[O-] [Example 23, N-[3,5-Dimethyl-4-[(nitromethyl)sulphonyl]phenyl]-2,2,2-trifluoroethanesulphonamide]",168 to 170 °C
17,"Cc1cc(NS(=O)(=O)c2ccccc2)cc(C)c1S(=O)(=O)C(Cl)(Cl)[N+](=O)[O-] [Example 33, N-[4-[(Dichloronitromethyl)sulphonyl]-3,5-dimethylphenyl]benzenesulphonamide]",112 to 114 °C

# The next lines start with the values.
row,melting point,Compound
1,189 to 190 °C,Cc1cc(NS(=O)(=O)Cc2ccccc2[N+](=O)[O-])cc(C)c1S(=O)(=O)C[N+](=O)[O-]
2,160 to 162 °C,"Cc1cc(NS(=O)(=O)c2ccc(Cl)cc2)cc(C)c1S(=O)(=O)C[N+](=O)[O-] [Example 5, 4-Chloro-N-[3,5-dimethyl-4-[(nitromethyl)sulphonyl]-phenyl]benzenesulphonamide]"
3,179 to 181 °C,"Cc1cccc(S(=O)(=O)Nc2cc(C)c(S(=O)(=O)C[N+](=O)[O-])c(C)c2)c1 [Example 6, N-[3,5-Dimethyl-4-[(nitromethyl)sulphonyl]phenyl]-3-methylbenzenesulphonamide]"
4,163 to 165 °C,"Cc1ccc(S(=O)(=O)Nc2cc(C)c(S(=O)(=O)C[N+](=O)[O-])c(C)c2)cc1 [Example 7, N-[3,5-Dimethyl-4-[(nitromethyl)sulphonyl]phenyl]-4-methylbenzenesulphonamide]"
5,208 to 215 °C,"Cc1cc(NS(=O)(=O)c2ccc3ccccc3c2)cc(C)c1S(=O)(=O)C[N+](=O)[O-] [Example 15, N-[3,5-Dimethyl-4-[(nitromethyl)sulphonyl]phenyl]-2-naphthalenesulphonamide]"
6,140 to 142 °C,"Cc1cc(NS(=O)(=O)c2ccccc2Br)cc(C)c1S(=O)(=O)C[N+](=O)[O-] [Example 17, 2-Bromo-N-[3,5-dimethyl-4-[(nitromethyl)sulphonyl]-phenyl]benzenesulphonamide]"
7,192 to 194 °C,"Cc1cc(NS(=O)(=O)c2ccc(S(C)(=O)=O)cc2)cc(C)c1S(=O)(=O)C[N+](=O)[O-] [Example 18, N-[3,5-Dimethyl-4-[(nitromethyl)sulphonyl]phenyl]-4-(methylsulphonyl)benzenesulphonamide]"
8,174 to 176 °C,"Cc1cc(NS(=O)(=O)/C=C/c2ccccc2)cc(C)c1S(=O)(=O)C[N+](=O)[O-] [Example 19, (E)-N-[3,5-Dimethyl-4-[(nitromethyl)sulphonyl]phenyl]-styrenesulphonamide]"
9,194 to 196 °C,"Cc1ccccc1S(=O)(=O)NC(=O)Nc1cc(C)c(S(=O)(=O)C[N+](=O)[O-])c(C)c1 [Example 20, 1-[3,5-Dimethyl-4-[(nitromethyl)sulphonyl]phenyl]-3-[(2-methylphenyl)sulphonyl]urea]"
10,150 to 155 °C,"Cc1ccc(S(=O)(=O)NC(=O)Nc2cc(C)c(S(=O)(=O)C[N+](=O)[O-])c(C)c2)cc1 [Example 21, 1-[3,5-Dimethyl-4-[(nitromethyl)sulphonyl]phenyl]-3-[(4-methylphenyl)sulphonyl]urea]"
11,209 to 210 °C,"CC(=O)Nc1ccc(S(=O)(=O)Nc2cc(C)c(S(=O)(=O)C[N+](=O)[O-])c(C)c2)cc1 [Example 22, N-[4-[3,5-Dimethyl-4-[(nitromethyl)sulphonyl]phenylsulphamoyl]phenyl]acetamide]"
12,132 to 134 °C,"Cc1cc(NS(=O)(=O)c2cc(F)ccc2F)cc(C)c1S(=O)(=O)C[N+](=O)[O-] [Example 28, 2,5-Difluoro-N-[3,5-dimethyl-4-[(nitromethyl)sulphonyl]phenyl]benzenesulphonamide]"
13,170 to 172 °C,"Cc1cc(NS(=O)(=O)c2cccc3ccccc23)cc(C)c1S(=O)(=O)C[N+](=O)[O-] [Example 31, N-[3,5-Dimethyl-4-[(nitromethyl)sulphonyl]phenyl]-1-naphthalenesulphonamide]"
14,158 to 159 °C,"Cc1cc(NS(=O)(=O)c2cccs2)cc(C)c1S(=O)(=O)C[N+](=O)[O-] [Example 32, N-[3,5-Dimethyl-4-[(nitromethyl)sulphonyl]phenyl]-2-thiophenesulphonamide]"
